According to patent publication US20120226031A1, “PALMARUMYCIN BASED INHIBITORS OF THIOREDOXIN AND METHODS OF USING SAME” (ARIZONA BOARD OF REGENTS, ACTING ON BEHALF OF THE …, priority 2005, published 2012):

Legend:
Format in all cases: in vivo, mouse
[1] = system: SHP-77 human small cell lung cancer; assay: Antitumor activity, SHP-77 small cell lung cancer xenograft
Protocol: (§1) FIG. 4. Antitumor activity of PX-916. A. Female beige nude mice were inoculated subcutaneously (s.c.) with 10^7 A-673 rhabdomyosarcoma cells. When tumors were 100 mm^3 on day 8 (arrow) dosing was begun with (∘) vehicle alone; (▴) PX-916 10 mg/kg intraperitoneally (i.p.) daily for 4 doses. B. Female scid mice were inoculated s.c. with 10^7 SHP-77 human small cell lung cancer cells. When tumors were 130 mm^3 on day 17 (arrow) dosing was begun with (∘) vehicle alone; (▪) PX-916 10 mg/kg i.v. daily for 8 doses; (▴) PX-916 25 mg/kg i.v. daily for 5 doses. C. Female scid mice implanted 1 day previously with a 17-β-estradiol 60 day slow release pellet were inoculated s.c. with 10^7 MCF-7 human breast cancer cells. When tumors were 180 mm^3 on day 8 (arrow) dosing was begun with (∘) vehicle alone; (⋄) PX-916 27.5 mg/kg i.v. daily for 5 doses. In both A and B values are the mean of 8 mice per group and bars are SE.
(§2) A single intravenous (i.v.) dose of PX-916 of 25 mg/kg inhibited MCF-7 human tumor xenograft TR up to about 60% at 24 hr and the inhibition was maintained for at least 48 hr (FIG. 3C). […] In this study 3 of eight nice had no histologically detectable tumor when the study was terminated on day 42.

VEGF = assay: Tumor VEGF immunohistochemistry in MCF-7 xenografts; conditions: five daily doses of 25 mg/kg, 24 hours after last dose
Protocol: FIG. 5. Inhibition of tumor HIF-1α, VEGF and thioredoxin reductase by repeated administration of PX-916. Female scid mice were implanted 1d previously with a 90-d 17β-estradiol slow release pellet were inoculated s.c. with 10^7 MCF-7 human breast cancer cells. When the tumors were 300 mm^3, vehicle or 25 mg/kg/d PX-916 was given i.v. for five doses. Twenty four hours later, the tumors were removed and stained by immunohistochemistry for HIF-1α and VEGF (A) or assayed for thioredoxin reductase activity (B). Columns mean of four mice, SE. P≦0.05.
Levels of the HIF-1α transcription factor and its downstream target VEGF are increased by thioredoxin-1 expression. We examined the effect of PX-916 administration on tumor HIF-1α and VEGF levels (FIG. 5A). Twenty-four hours after the last dose of five daily doses of PX-916 of 25 mg/kg, there was a decrease in MCF-7 xenograft staining for both HIF-1α and VEGF. At the same time, levels of tumor thioredoxin reductase activity were decreased by 75% (FIG. 5B).

[2] = system: MCF-7 human tumor xenograft TR; assay: Inhibition of tumor thioredoxin reductase in MCF-7 xenografts; conditions: 25 mg/kg/d i.v. five daily doses, 24 hr after last dose
Protocol: FIG. 3. Inhibition of cellular thioredoxin reductase by PX-916. MCF-7 human breast cancer cells grown in medium containing 1 μM Se for 7 days were treated with PX-916 and total cellular thioredoxin reductase activity measured. A. Time course of the inhibition of the thioredoxin reductase on exposure to 1 μM PX-916. […] In both cases values are the mean of 3 separate determinations and bars are S.E. P≦0.04 or **p≦0.01. C. Inhibition of MCF-7 tumor thioredoxin reductase by PX-916. MCF-7 human breast cancer xenografts were grown in female scid mice implanted with 17-β-estradiol 60 day slow-release pellets until they were ˜300 mm^3. The mice were administered a single dose of PX-916 of 25 mg/kg i.v. and tumors harvested at various times. Thioredoxin reductase activity was measured in tumor homogenates. Values are the mean of 3 mice at each time point and bars are SE. **p<0.01 compared to pretreatment value.
FIG. 5. Inhibition of tumor HIF-1α, VEGF and thioredoxin reductase by repeated administration of PX-916. Female scid mice were implanted 1d previously with a 90-d 17β-estradiol slow release pellet were inoculated s.c. with 10^7 MCF-7 human breast cancer cells. When the tumors were 300 mm^3, vehicle or 25 mg/kg/d PX-916 was given i.v. for five doses. […]

[3] = system: MCF-7 human breast cancer xenografts; assay: Antitumor activity, MCF-7 breast cancer xenograft
Protocol: as §1, with “When tumors were 180 mm^3 on day 8 (arrow) dosing was begun with (∘) vehicle alone; (⋄) PX-916 27.5 mg/kg i.v. daily for 5 doses.” left out
as §2

[4] = 10 mg/kg i.v. daily for 8 doses
[5] = 25 mg/kg i.v. daily for 5 doses
[6] = 27.5 mg/kg i.v. every other day for 5 doses

## NCC(=O)Oc1ccc2c3c(cccc13)OC1(C=CC(=O)c3c(O)cccc31)O2 (stereo not drawn) [PX-916, O-glycyl naphthoquinone spiroketal]
[1]; [4]
  tumor growth inhibition: 39%
  tumor growth rate: about 91±24 mm^3/day
[1]; [5]
  mice with no histologically detectable tumor on day 42: 3 of eight
  tumor growth inhibition: 82%
[1]; 25 mg/kg i.v. daily for 5 doses, 5 days after end of dosing
  tumor growth rate: 27 mm^3/day
[1]; in words
  tumor regressions: complete tumor regressions were seen in some mice
VEGF
  MCF-7 xenograft staining for VEGF: decrease
[2]
  decrease of tumor thioredoxin reductase activity: 75%
[3]; 27.5 mg/kg i.v. daily for 5 doses
  tumor growth inhibition: 52%
[3]; 27.5 mg/kg i.v. daily for 5 doses, 5 days after end of dosing
  tumor growth rate: 22±4 mm^3/day
[3]; [6]
  tumor growth inhibition: 52%
  tumor growth rate: 22±8 mm^3/day
[3]; 27.5 mg/kg orally for 5 doses
  tumor growth inhibition: 62%
  tumor growth rate: 18.5±8 mm^3/day
[3]; oral, at doses that gave i.v. antitumor activity
  antitumor activity following oral administration: Significant antitumor activity was not seen
